# Reference: patent US20260293937A1, “SHRIMP FEED AND METHODS OF USE THEREOF” (Organicin Scientific, Inc., priority 2023, published 2026)
# No end group written: not given here.
# Test system: pathogenic Vibrio
# Assay: Minimum inhibitory concentration, all Vibrio species
# Format: cell-based
# Conditions: all species of Vibrio
# Protocol: This Example describes the materials and methods, and results of a serial dilution experiment to determine the Minimum Inhibitory Concentration (MIC) of Nisin in reducing a concentration of pathogenic Vibrio.
# On the day before the experiment, Vibrio stock were prepared by sterilizing an inoculation loop, cooling the product, and extracting cells. Such extract was incubated at 37° C. for 16 to 20 hours. The density of cells was normalized to a cell density of approximately 10^7 to 10^8 CFU/mL and 100 uL lawns were prepared at a cell density of about 10^6 to 10^7 CFU using sterile glass beads. Four lawns were made so that each Nisin dilution could be tested on two identical plates.
# 5 μL of two-fold dilutions (See Table 1, below) of Nisin (Immucell; 99% pure), or shrimp feed (without Nisin), citric acid, or DH20 negative controls, respectively, were spotted on the plates, which were incubated at 37° C. for 16 to 20 hours. The minimum inhibitory concentration was determined. In particular, plates were characterized based upon the presence (0) or absence (1) of Vibrio growth.
substance,measurement,value
"Nisin: Nisin (Immucell; 99% pure) in Example 1; bacteriocin Nisin in shrimp feed at 0.84, 8.4 and 84 mg/g in Example 2 (ITSISLCTPGCKTGALMGCNMKTATCHCSIHVSK; cysteine pairing not given here; also: lantibiotic, modifications not placed; UniProt P13068 24-57, looked up)",MIC compared with negative control,significantly smaller MIC than the negative control
